Where “and” joins values, the source holds several entries; their conditions need not be identical. Identical values can stand only once. Entries after “also recorded” stand apart in the source; their conditions may differ.
Assays:
[1] = Acute oral toxicity in mice; assay type: in vivo; conditions: mouse, in vivo, po
Procedure: (§1) That of homochlorcyclyzine used as a standard drug is reported to be 353 mg/kg for mice.

[2] = tested on: ddN mice; test: Acute oral toxicity in mice; assay type: in vivo; conditions: acute oral
Procedure: as §1

[3] = Acute oral toxicity in rats; conditions: rat, in vivo
Procedure: as §1

[4] = tested on: BSA induced asthma in guinea pigs; test: Inhibitory action on BSA-induced (experimentally allergic) asthma attack in passively sensitized guinea pigs; assay type: in vivo, guinea pig; design: key to z1 (statistical value vs non treatment): Mann-Whitney U z statistic, treated vs non-treated; conditions: for p (statistical significance vs non treatment) / z1 (statistical value vs non treatment) / p (present compound vs homochlorcyclizine) / z2 (statistical value, present compound vs homochlorcyclizine): severity; for z1 (statistical value vs non treatment) / z2 (statistical value, present compound vs homochlorcyclizine): Mann and Whitney U test
Procedure: The present compound is studied on asthma attacks induced by the antigen-antibody reaction in guinea pigs. The guinea pigs are sensitized passively by the injection of 0.1 to 0.3 ml /100g body weight of rabbit antiserum to BSA (bovine serum albumin) into the ear vein. Forty six hours after passive sensitization, the guinea pigs are orally given the tested compounds. Two hours after oral administration, the asthma attack is provoked by an aerosol injection (0.1 ml/min.) of 1% BSA solution in physiological saline into the plastic chamber in which the testing guinea pig is placed. The symptoms of the asthma attack are observed for 10 minutes and scored on the following shock indices. The shock indices are examined by the shock grades, No. of collapsed guinea pigs/No. of used animals and survival rate.
The shock grades are as follows:
1 slight stimulation of expiration
2 stimulation of expiration (labored expiration)
3 attack of singultation
4 the strongest attack of collapse and struggle
but recovery from collapse within 5 minutes
5 recovery from collapse within 5 to 10 minutes
6 interruption of expiration to death within 10
*Statistical comparisons were carried out with the Mann and Whitneys' U
z1 : The statistical value between non treatment and each tested
z2 : The statistical value between the present compound and […]

[5] = tested on: histamine-induced asthma attack; test: Inhibitory action on histamine-induced asthma attack in guinea pigs; assay type: in vivo, guinea pig; conditions: for z1 (statistical value): Mann and Whitney U test
Procedure: Inhibitory actions on histamine-induced asthma attack: Male guinea pigs, of about 300 g body weight are used. Asthma attack is provoked by an aerosol of 0.2% histamine dihydrochloride solution in physiological saline for 10 minutes. The inhibitory actions are examined by shock grades, No. of collapsed guinea pigs/No. of provoked guinea pigs and survival rate. The tested compounds are orally given 2 hrs. prior to spraying of histamine solution.
A/B: No. of collapsed guinea pigs/ No. of provoked guinea pigs.
Statistical comparisons were carried out with the Mann and Whtineys' U

[6] = tested on: guinea pig tracheal chain strips; test: Anti histaminic action: histamine-induced contraction of guinea pig tracheal chain strips; conditions: 4×10^^-5 M; Tyrodes solution
[7] = tested on: anti acetylcholinergic action; test: Anti cholinergic action
[8] = tested on: heterologous PCA in guinea pigs; test: Heterologous passive cutaneous anaphylaxis (PCA) in guinea pigs; assay type: in vivo, guinea pig; conditions: 25 mg/kg po, 30 min. before challenge; rabbit antiserum to egg albumin
Procedure: Male guinea pigs are passively sensitized by the intradermal injection of rabbit antiserum to egg albumin and challenged by the intravenous injection of egg albumin 4 hrs. after the sensitization. The test compounds are orally given 30 min. before the challenge.

[9] = tested on: homologous PCA in rats; test: Homologous PCA in Wistar rats; assay type: in vivo, rat (Wistar); conditions: for Inhibition % of extravasation of blue dye: Wistar, egg albumin, 30 min. before challenge, 72 hrs. after sensitization
Excerpt: (§2) Male wistar or SD rats are passively sensitized by Motas method (Immunology 7, 681, 1964) and challenged by the intravenous injection of wistar or SD rat antiserum to egg albumin or horse serum. The inhibitory action of the present compound on homologous PCA (induced by reaginlike, mast cell sensitizing antibody) is shown in Table 5.

[10] = tested on: homologous PCA in rats; test: Homologous PCA in SD rats; assay type: in vivo, rat (SD)
Excerpt: as §2

[11] = tested on: guinea pig ileum; test: Schultz-Dale reaction in guinea pig ileum sensitized actively with egg albumin; conditions: actively-sensitized guinea pig ileum
Procedure: Male guinea pigs are actively sensitized and their ileum preparations are treated by Schultz-Dales method (J. Pharmacol. Exp. Ther., 4, 167, 1913). […] These preceeding pharmacological properties of the present compound are due to triazolo [1,5-a]pyridine.

[12] = antiserum 0.1 ml/100 g, 0.5 mg/kg p.o.
[13] = antiserum 0.1 ml/100 g, 1.0 mg/kg p.o.
[14] = antiserum 0.1 ml/100 g, 5.0 mg/kg p.o.
[15] = antiserum 0.2 ml/100 g, 5 mg/kg p.o.
[16] = antiserum 0.3 ml/100 g, 5 mg/kg p.o.
[17] = 2.50 mg/kg p.o. vs homochlorcyclizine (250 mg/kg (so in the source))

c1ccc(C(c2ccccc2)N2CCN(CCCc3nc4ccccn4n3)CC2)cc1 [the present compound, 2-[3-(4-diphenylmethyl-1-piperazinyl)propyl] -s-triazolo[1,5-a]pyridine]
LD50 ([1]; female ddN mice, confidence limit 418-563 mg/kg): 485 mg/kg
LD50 ([1]; male ddN mice, confidence limit 507-768 mg/kg): 625 mg/kg
toxicity compared with homochlorcyclizine [2]: lower toxicity than that of homochlorcyclizine
LD50 ([3]; male wistar rats, confidence limit 1,05l-1, 790 mg/kg): 1370 mg/kg
LD50 ([3]; po, female wistar rats): < 450 mg/kg
severe asthma attack ([4]; 5 mg/kg dose): suppresses completely severe asthma attack
A/B: No. of collapsed / No. of provoked guinea pigs [4, 12]: 3/6
A/B: collapsed guinea pigs, percentage [4, 12]: 50%
Survival rate (animals) [4, 12]: 5/6
Survival rate, percentage [4, 12]: 83.3%
A/B: No. of collapsed / No. of provoked guinea pigs [4, 13]: 4/10
A/B: collapsed guinea pigs, percentage [4, 13]: 40%
Survival rate (animals) [4, 13]: 10/10
Survival rate, percentage [4, 13]: 100%
A/B: No. of collapsed / No. of provoked guinea pigs [4, 14]: 0/6
A/B: collapsed guinea pigs, percentage [4, 14]: 0%
Survival rate (animals) [4, 14]: 6/6
Survival rate, percentage [4, 14]: 100%
A/B: No. of collapsed / No. of provoked guinea pigs [4, 15]: 0/6
A/B: collapsed guinea pigs, percentage [4, 15]: 0%
Survival rate (animals) [4, 15]: 6/6
Survival rate, percentage [4, 15]: 100%
A/B: No. of collapsed / No. of provoked guinea pigs [4, 16]: 0/5
A/B: collapsed guinea pigs, percentage [4, 16]: 0%
Survival rate (animals) [4, 16]: 5/5
Survival rate, percentage [4, 16]: 100%
incidences of asthma attack vs non treated ([4]; more than 0.5 mg/kg dose): inhibits significantly
collapse ([4]; more than oral 5 mg/kg dose): completely inhibits collapse
inhibitory action on asthma attack compared with homochlorcyclizine ([4]; oral): more significant; also recorded: prohibits the asthma attack more significantly than that of homochlorocyclizine
shock death ([4]; oral 1 mg/kg): inhibits shock death
p (statistical significance vs non treatment) [4, 12]: < 0.01
z1 (statistical value vs non treatment) [4, 12]: 2.618
p (statistical significance vs non treatment) [4, 13]: < 0.0001
z1 (statistical value vs non treatment) [4, 13]: 4.032
p (statistical significance vs non treatment) [4, 14]: < 0.001
z1 (statistical value vs non treatment) [4, 14]: 3.686
p (present compound vs homochlorcyclizine) [4, 15]: < 0.04
p (statistical significance vs non treatment) [4, 15]: < 0.0001
z1 (statistical value vs non treatment) [4, 15]: 4.112
z2 (statistical value, present compound vs homochlorcyclizine) [4, 15]: 2.067
p (present compound vs homochlorcyclizine) [4, 16]: < 0.05
p (statistical significance vs non treatment) [4, 16]: < 0.001
z1 (statistical value vs non treatment) [4, 16]: 3.26
z2 (statistical value, present compound vs homochlorcyclizine) [4, 16]: 2.008
A/B: No. of collapsed / No. of provoked guinea pigs ([5]; 0.156 mg/kg p.o.): 10/10
A/B: collapsed guinea pigs, number in parentheses (percentage) ([5]; 0.156 mg/kg p.o.): 100
Survival rate (animals) ([5]; 0.156 mg/kg p.o.): 0/10
Survival rate, number in parentheses (percentage) ([5]; 0.156 mg/kg p.o.): 0
A/B: No. of collapsed / No. of provoked guinea pigs ([5]; 0.313 mg/kg p.o.): 10/10
A/B: collapsed guinea pigs, number in parentheses (percentage) ([5]; 0.313 mg/kg p.o.): 100
Survival rate (animals) ([5]; 0.313 mg/kg p.o.): 10/10
Survival rate, number in parentheses (percentage) ([5]; 0.313 mg/kg p.o.): 100
significance of difference from non treatment 1 ([5]; 0.313 mg/kg p.o.): markedly significant difference
z1 (statistical value) ([5]; 0.313 mg/kg p.o. vs non treatment 1): > 5
A/B: No. of collapsed / No. of provoked guinea pigs ([5]; 0.625 mg/kg p.o.): 9/10
A/B: collapsed guinea pigs, number in parentheses (percentage) ([5]; 0.625 mg/kg p.o.): 90
Survival rate, number in parentheses (percentage) ([5]; 0.625 mg/kg p.o.): 100
significance of difference from non treatment 1 ([5]; 0.625 mg/kg p.o.): markedly significant difference
z1 (statistical value) ([5]; 0.625 mg/kg p.o. vs non treatment 1): > 5
A/B: No. of collapsed / No. of provoked guinea pigs ([5]; 1.25 mg/kg p.o.): 4/10
A/B: collapsed guinea pigs, number in parentheses (percentage) ([5]; 1.25 mg/kg p.o.): 40
Survival rate (animals) ([5]; 1.25 mg/kg p.o.): 10/10
Survival rate, number in parentheses (percentage) ([5]; 1.25 mg/kg p.o.): 100
significance of difference from non treatment 1 ([5]; 1.25 mg/kg p.o.): markedly significant difference
z1 (statistical value) ([5]; 1.25 mg/kg p.o. vs non treatment 1): > 5
A/B: No. of collapsed / No. of provoked guinea pigs ([5]; 2.50 mg/kg p.o.): 1/11
A/B: collapsed guinea pigs, number in parentheses (percentage) ([5]; 2.50 mg/kg p.o.): 9.1
Survival rate (animals) ([5]; 2.50 mg/kg p.o.): 11/11
Survival rate, number in parentheses (percentage) ([5]; 2.50 mg/kg p.o.): 100
significance of difference from non treatment 1 ([5]; 2.50 mg/kg p.o.): markedly significant difference
p (significant difference from homochlorcyclizine) [5, 17]: < 0.02
z2 (statistical value) [5, 17]: 2.332
z1 (statistical value) ([5]; 2.50 mg/kg p.o. vs non treatment 1): > 5
A/B: No. of collapsed / No. of provoked guinea pigs ([5]; 10.0 mg/kg p.o.): 0/6
A/B: collapsed guinea pigs, number in parentheses (percentage) ([5]; 10.0 mg/kg p.o.): 0
Survival rate (animals) ([5]; 10.0 mg/kg p.o.): 6/6
Survival rate, number in parentheses (percentage) ([5]; 10.0 mg/kg p.o.): 100
p (significant difference from non treatment 2) ([5]; 10.0 mg/kg p.o.): < 0.0005
p for z2 (significant difference from non treatment 1 (so in the source)) ([5]; 10.0 mg/kg p.o.): < 0.005
z2 (statistical value) ([5]; 10.0 mg/kg p.o. vs non treatment 1 (so in the source)): 2.844
z1 (statistical value) ([5]; 10.0 mg/kg p.o. vs non treatment 2): 3.321
inhibition of asthma attack compared to non treatment and homochlorcyclizine ([5]; oral, 2 hrs. prior to histamine): markedly and significantly inhibits asthma attack
inhibitory rate on histamine-induced contraction [6]: 124%
anti acetylcholinergic action [7]: not found to have anti acetylcholinergic action
Inhibition % of extravasation of blue dye [8]: 57.8%
inhibition of reaginlike, mast cell sensitizing antibody-induced PCA ([9]; Wistar rat, oral): markedly inhibits
Inhibition % of extravasation of blue dye ([9]; 25 mg/kg po): 64.3%
Inhibition % of extravasation of blue dye ([9]; 50 mg/kg po): 88.8%
inhibition of reaginlike, mast cell sensitizing antibody-induced PCA ([10]; SD rat, oral): markedly inhibits
Inhibition % of extravasation of blue dye ([10]; SD, horse serum, 100 mg/kg po, 3 hrs. before challenge, 48 hrs. after sensitization): 94.8% and 94%
inhibition of Schultz-Dale reaction [11]: markedly inhibits Schultz-Dale reaction

Source: US3956328A, “S-triazolo(1,5-a)pyridine derivative” (Kyorin Seiyaku Kabushiki Kaisha, priority 1973, dated 1976)
